Measurements reported in US12599136B2, “Substituted isophthalic acid diamides and their use as herbicides” (Bayer Aktiengesellschaft, priority 2020, dated 2026).

Assays:
Format in all cases: in vivo
Setaria viridis [1] = test: Post-emergence herbicidal action against SETVI; conditions: for Post-emergence action against SETVI in %: visual assessment about 3 weeks after treatment
How it was run: (§1)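 Percent herbicidal action is rated by eye about 3 weeks after treatment against untreated controls, where 100% means dead plants and 0% means like controls. Plants in sandy loam are sprayed on green parts at the one-leaf stage with aqueous WP or EC preparations at 600 to 800 l/ha plus 0.2% wetting agent.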

Polygonum convolvulus [2] = test: Pre-emergence herbicidal action against POLCO; conditions: 80 g/ha
How it was run: (§2)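 Seeds sown in sandy loam, soil-covered; compound sprayed on soil surface pre-emergence. Application: WP/EC, 600–800 l/ha, 0.2% wetting agent. Readout: visual % damage at 3 weeks.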

Pharbitis purpurea [3] = test: Pre-emergence herbicidal action against PHBPU; conditions: 80 g/ha; visual score after 3 weeks vs untreated controls
How it was run: as §2

Digitaria sanguinalis [4] = test: Post-emergence herbicidal action against DIGSA
How it was run: as §1

Veronica persica [5] = test: Post-emergence herbicidal action against VERPE; conditions: visual assessment about 3 weeks after treatment
How it was run: as §1

Lolium rigidum = test: Pre-emergence herbicidal action against LOLRI; conditions: 80 g/ha
How it was run: as §2

Echinochloa crus-galli [6] = test: Pre-emergence herbicidal action against ECHCG; conditions: for Pre-emergence action against ECHCG: visual score after 3 weeks vs untreated controls
How it was run: as §2

Echinochloa crus-galli [7] = test: Post-emergence herbicidal action against ECHCG; conditions: visual assessment about 3 weeks after treatment
How it was run: as §1

Digitaria sanguinalis [8] = test: Pre-emergence herbicidal action against DIGSA
How it was run: as §2

Abutilon theophrasti [9] = test: Pre-emergence herbicidal action against ABUTH; conditions: for Pre-emergence action against ABUTH: visual score after 3 weeks vs untreated controls
How it was run: as §2

Setaria viridis [10] = test: Pre-emergence herbicidal action against SETVI
How it was run: as §2

Abutilon theophrasti [11] = test: Post-emergence herbicidal action against ABUTH
How it was run: as §1

Alopecurus myosuroides [12] = test: Pre-emergence herbicidal action against ALOMY; conditions: for Pre-emergence action against ALOMY: visual score after 3 weeks vs untreated controls
How it was run: as §2

Matricaria inodora [13] = test: Pre-emergence herbicidal action against MATIN; conditions: for Pre-emergence action against MATIN: visual score after 3 weeks vs untreated controls
How it was run: as §2

Matricaria inodora [14] = test: Post-emergence herbicidal action against MATIN; conditions: for Post-emergence action against MATIN in %: visual assessment about 3 weeks after treatment
How it was run: as §1

Pharbitis purpurea [15] = test: Post-emergence herbicidal action against PHBPU
How it was run: as §1

Amaranthus retroflexus [16] = test: Pre-emergence herbicidal action against AMARE; conditions: visual score after 3 weeks vs untreated controls
How it was run: as §2

Polygonum convolvulus [17] = test: Post-emergence herbicidal action against POLCO; conditions: 20 g/ha, visual assessment about 3 weeks after treatment
Procedure: Seeds of monocotyledonous and dicotyledonous weed and crop plants are laid out in sandy loam soil in wood-fiber pots, covered with soil and cultivated in a greenhouse under good growth conditions. 2 to 3 weeks after sowing, the test plants are treated at the one-leaf stage. The compounds of the invention, formulated in the form of wettable powders (WP) or as emulsion concentrates (EC), are then sprayed onto the green parts of the plants in the form of an aqueous suspension or emulsion at a water application rate equivalent to 600 to 800 l/ha, with addition of 0.2% wetting agent. After the test plants have been left to stand in the greenhouse under optimal growth conditions for about 3 weeks, the action of the preparations is assessed visually in comparison to untreated controls (herbicidal action in percent (%): 100% activity=the plants have died, 0% activity=like control plants). […] The tables below illustrate, in an illustrative manner, the post-emergence herbicidal action of the compounds of the invention, the herbicidal activity being stated in percent.

Alopecurus myosuroides [18] = test: Post-emergence herbicidal action against ALOMY
How it was run: as §1

Avena fatua [19] = test: Post-emergence herbicidal action against AVEFA; conditions: for Post-emergence action against AVEFA in %: visual assessment about 3 weeks after treatment
How it was run: as §1

Viola tricolor [20] = test: Post-emergence herbicidal action against VIOTR
How it was run: as §1

Veronica persica [21] = test: Pre-emergence herbicidal action against VERPE; conditions: 80 g/ha
How it was run: as §2

Amaranthus retroflexus [22] = test: Post-emergence herbicidal action against AMARE; conditions: visual assessment about 3 weeks after treatment
How it was run: as §1

Avena fatua [23] = test: Pre-emergence herbicidal action against AVEFA; conditions: for Pre-emergence action against AVEFA: visual score after 3 weeks vs untreated controls
How it was run: as §2

Viola tricolor [24] = test: Pre-emergence herbicidal action against VIOTR
How it was run: as §2

[25] = comparative experiment, 5 g a.i./ha
[26] = comparative experiment, pre-emergence, 20 g a.i./ha

## CCn1nnnc1NC(=O)c1ccc(C(F)F)c(C(=O)N(C)C)c1Cl [Example 2-154]
Setaria viridis [1]; 5 g/ha
  Post-emergence action against SETVI in %: 90%
Setaria viridis [1]; 20 g/ha
  Post-emergence action against SETVI in %: 100%
Setaria viridis [1]; [25]
  Herbicidal action against SETVI: 90
Polygonum convolvulus [2]
  Pre-emergence action against POLCO: 80%
Pharbitis purpurea [3]
  Pre-emergence action against PHBPU: 80%
Digitaria sanguinalis [4]; 5 g/ha
  Post-emergence action against DIGSA in %: 90%
Digitaria sanguinalis [4]; 20 g/ha
  Post-emergence action against DIGSA in %: 90%
Veronica persica [5]; 5 g/ha
  Post-emergence action against VERPE in %: 80%
Veronica persica [5]; 20 g/ha
  Post-emergence action against VERPE in %: 90%
Lolium rigidum
  Pre-emergence action against LOLRI: 80%
Echinochloa crus-galli [6]; 20 g/ha
  Pre-emergence action against ECHCG: 80%
Echinochloa crus-galli [6]; 80 g/ha
  Pre-emergence action against ECHCG: 100%
Echinochloa crus-galli [6]; [26]
  Herbicidal action against ECHCG: 80
Echinochloa crus-galli [7]; 5 g/ha
  Post-emergence action against ECHCG in %: 80%
Echinochloa crus-galli [7]; 20 g/ha
  Post-emergence action against ECHCG in %: 90%
Digitaria sanguinalis [8]; 20 g/ha
  Pre-emergence action against DIGSA: 100%
Digitaria sanguinalis [8]; 80 g/ha
  Pre-emergence action against DIGSA: 100%
Abutilon theophrasti [9]; 20 g/ha
  Pre-emergence action against ABUTH: 100%
Abutilon theophrasti [9]; 80 g/ha
  Pre-emergence action against ABUTH: 100%
Abutilon theophrasti [9]; [26]
  Herbicidal action against ABUTH: 100
Setaria viridis [10]; 20 g/ha
  Pre-emergence action against SETVI: 100%
Setaria viridis [10]; 80 g/ha
  Pre-emergence action against SETVI: 100%
Setaria viridis [10]; comparative experiment, 20 g a.i./ha
  Herbicidal action against SETVI: 100
Abutilon theophrasti [11]; 5 g/ha
  Post-emergence action against ABUTH: 100%
Abutilon theophrasti [11]; 20 g/ha
  Post-emergence action against ABUTH: 100%
Alopecurus myosuroides [12]; 20 g/ha
  Pre-emergence action against ALOMY: 80%
Alopecurus myosuroides [12]; 80 g/ha
  Pre-emergence action against ALOMY: 100%
Alopecurus myosuroides [12]; [26]
  Herbicidal action against ALOMY: 80
Matricaria inodora [13]; 20 g/ha
  Pre-emergence action against MATIN: 90%
Matricaria inodora [13]; 80 g/ha
  Pre-emergence action against MATIN: 100%
Matricaria inodora [13]; [26]
  Herbicidal action against MATIN: 90
Matricaria inodora [14]; 5 g/ha
  Post-emergence action against MATIN in %: 80%
Matricaria inodora [14]; 20 g/ha
  Post-emergence action against MATIN in %: 90%
Matricaria inodora [14]; [25]
  Herbicidal action against MATIN: 80
Pharbitis purpurea [15]; 20 g/ha, visual assessment about 3 weeks after treatment
  Post-emergence action against PHBPU in %: 80%
Pharbitis purpurea [15]; [25]
  Herbicidal action against PHBPU: 70
Amaranthus retroflexus [16]; 20 g/ha
  Pre-emergence action against AMARE: 100%
Amaranthus retroflexus [16]; 80 g/ha
  Pre-emergence action against AMARE: 100%
Polygonum convolvulus [17]
  Post-emergence action against POLCO in %: 90%
Alopecurus myosuroides [18]; 5 g/ha
  Post-emergence action against ALOMY: 90%
Alopecurus myosuroides [18]; 20 g/ha
  Post-emergence action against ALOMY: 90%
Alopecurus myosuroides [18]; [25]
  Herbicidal action against ALOMY: 90
Avena fatua [19]; 5 g/ha
  Post-emergence action against AVEFA in %: 80%
Avena fatua [19]; 20 g/ha
  Post-emergence action against AVEFA in %: 100%
Avena fatua [19]; [25]
  Herbicidal action against AVEFA: 80
Viola tricolor [20]; 5 g/ha
  Post-emergence action against VIOTR in %: 90%
Viola tricolor [20]; 20 g/ha
  Post-emergence action against VIOTR in %: 100%
Viola tricolor [20]; [25]
  Herbicidal action against VIOTR: 80
Veronica persica [21]
  Pre-emergence action against VERPE: 90%
Amaranthus retroflexus [22]; 5 g/ha
  Post-emergence action against AMARE in %: 90%
Amaranthus retroflexus [22]; 20 g/ha
  Post-emergence action against AMARE in %: 100%
Avena fatua [23]; 20 g/ha
  Pre-emergence action against AVEFA: 80%
Avena fatua [23]; 80 g/ha
  Pre-emergence action against AVEFA: 100%
Avena fatua [23]; [26]
  Herbicidal action against AVEFA: 80
Viola tricolor [24]; 20 g/ha
  Pre-emergence action against VIOTR: 90%
Viola tricolor [24]; 80 g/ha
  Pre-emergence action against VIOTR: 100%
